Source: PMC4089482, “Bacterial periplasmic sialic acid-binding proteins exhibit a conserved binding site” (Acta Crystallographica Section D: Biological Crystallography, 2014)
Entries after “also recorded” stand apart in the source; their conditions may differ. Like-named read-outs stand apart in the source and are kept apart here.

Legend:
[1] = tested on: V. cholerae O1 biovar eltor strain N16961; experiment: Growth-curve experiment in M9 minimal medium with different sugars; format: cell-based, Vibrio cholerae; settings: M9 minimal medium supplemented with sugar (5 mg ml^−1; all at 5 mM), 37°C
Description: V. cholerae O1 biovar eltor strain N16961 was initially grown on LB agar plates. Subsequently, 3 ml M9 minimal medium supplemented with different sugars (5 mg ml^−1) was inoculated with bacteria at an OD600 of 0.07. These cultures were incubated in a 37°C shaker at 225 rev min^−1. Optical densities at A 600 were measured at various time points using a Spectronic GENESYS 20 Visible Spectrophotometer to observe the growth pattern of V. cholerae in different compounds. The different sugars used were Neu5Ac, Neu5Gc, fetuin (a glycoprotein of foetal serum that contains different sugars and sialic acid; Spiro, 1960[▶]), asialofetuin, galactose, glycerol, D-lactic acid, succinate, sucrose, DL-malic acid and fructose, all at 5 mM concentration. Based on the readings, a graph of OD600 was plotted.

[2] = molecular target: Pm-SiaP (Pasteurella multocida, UniProt Q9CKB5); experiment: ITC binding of sialic acids to Pm-SiaP
Description: (§1) ITC measurements were performed using a MicroCal ITC system (GE Healthcare). The reaction buffer for all of the experiments was 20 mM HEPES pH 8.0, 10 mM NaCl. All titrations were carried out at 25°C. The protein concentration was determined using the Bio-Rad Bradford reagent. The concentrations of SiaP and Neu5Ac/Neu5Gc were varied in the different titrations and each binding experiment was repeated three times. The nonspecific heat released by the dilution of both the sugars and the protein was calculated by averaging the heat liberated during the last 3–5 injections after saturation. This value was then subtracted from the raw heat released during each injection. To derive the stoichiometric values, the data sets were analyzed using a single-site binding model from the Origin ITC analysis software (MicroCal). In this analysis, the values for the stoichiometry, the change in enthalpy (ΔH) and the affinity were fitted using nonlinear least-squares analysis. To derive the values for the affinity, ΔS and ΔH, data sets were globally analyzed using the single-site binding model in SEDPHAT (Vistica et al., 2004[▶]; Dam & Schuck, 2005[▶]).

[3] = molecular target: T1, Vc-SiaP (Vibrio cholerae serotype O1, UniProt Q9KR64); experiment: ITC binding of sialic acids to Vc-SiaP; settings: 25°C; for H (change in enthalpy, ΔH) / Kd / T S (entropic component): 20 mM HEPES pH 8.0, 10 mM NaCl
T1 construct: PCR-amplified using the forward primer 5′-[…]-3′; made in house; host or cells: Escherichia coli BL21 (DE3)
T1 sequence (Q9KR64 23-321): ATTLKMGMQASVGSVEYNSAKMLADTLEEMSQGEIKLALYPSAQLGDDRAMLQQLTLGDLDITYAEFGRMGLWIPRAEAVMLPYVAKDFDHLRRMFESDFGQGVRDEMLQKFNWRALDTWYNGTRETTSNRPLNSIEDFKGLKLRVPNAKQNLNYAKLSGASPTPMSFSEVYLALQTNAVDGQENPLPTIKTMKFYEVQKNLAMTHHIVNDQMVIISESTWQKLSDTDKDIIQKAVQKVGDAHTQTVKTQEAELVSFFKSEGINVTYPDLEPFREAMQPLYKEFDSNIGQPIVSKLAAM
Description: as §1

[4] = molecular target: Fn-SiaP (Fusobacterium nucleatum subsp. nucleatum, UniProt Q8RDN9); experiment: ITC binding of sialic acids to Fn-SiaP; settings: 25°C; for H (change in enthalpy, ΔH) / Kd / T S (entropic component): 20 mM HEPES pH 8.0, 10 mM NaCl
Description: as §1

[5] = molecular target: T2, Hi-SiaP N187Q mutant (Haemophilus influenzae, UniProt P44542, N210Q); experiment: ITC binding of Neu5Ac to Hi-SiaP N187Q; settings: 25°C
T2 construct: made in house
Description: as §1

[6] = molecular target: T3, Hi-SiaP H209A mutant (Haemophilus influenzae, UniProt P44542, H232A); experiment: ITC binding of Neu5Ac to Hi-SiaP H209A; settings: 25°C
T3 construct: made in house
Description: as §1

[7] = molecular target: T4, Hi-SiaP E67A mutant (Haemophilus influenzae, UniProt P44542, E90A); experiment: ITC binding of Neu5Ac to Hi-SiaP E67A
T4 construct: made in house
Description: as §1

[8] = tested on: V. cholerae; experiment: ELISA (3F11) of Neu5Ac incorporation onto surface LOS; format: cell-based, Vibrio cholerae
Description: V. cholerae was grown on sBHI agar plates containing 100 µM Neu5Ac and LB. Cells were harvested and resuspended in PBS (20 mM Na2HPO4, 150 mM NaCl pH 7.0) at an OD600 of 0.2. The wells of Costar 96-well EIA/RIA plates (Corning) were filled with 100 µl of the bacterial suspension and six wells were used for each experiment. The plates were dried at 40°C overnight. The plates were washed four times with buffer C (72 mM sodium acetate, 165 mM sodium chloride, 0.55% Tween 20) using an ELx50 Strip Washer (BioTek Instruments, Winooski, Vermont, USA). A neuraminidase digest was performed on three wells by adding 100 µl 0.01 U ml^−1 neuraminidase (Roche Diagnostics GmbH, Mannheim, Germany) diluted in neuraminidase buffer (50 mM sodium acetate, 154 mM NaCl, 9 mM CaCl2, 25 µg ml^−1 human serum albumin pH 5.6) and the other three wells were treated with just the buffer. The plate was incubated for 6 h at 37°C and the wells were then washed. The monoclonal antibody 3F11, diluted 1/200 in buffer C, was added to each well. The plates were incubated at 37°C overnight (approximately 18 h) followed by a wash. The secondary antibody, phosphatase-labelled goat anti-mouse IgM (Kirkegaard and Perry Laboratories, Gaithersburg, Maryland, USA), diluted 1/2000 in buffer C, was added. […] When a yellow colour had developed, the absorbance at 405 nm was read using a Microplate Autoreader EL311 (BioTek Instruments).

[9] = molecular target: T5, Hi-SiaP E186Q mutant (Haemophilus influenzae, UniProt P44542, E209Q); experiment: ITC binding of Neu5Ac to Hi-SiaP E186Q
T5 construct: made in house
Description: as §1

[10] = molecular target: T6, Hi-SiaP R127K mutant (Haemophilus influenzae, UniProt P44542, R150K); experiment: ITC binding of Neu5Ac to Hi-SiaP R127K; settings: 25°C
T6 construct: made in house
Description: as §1

[11] = molecular target: T7, Hi-SiaP wild type (Haemophilus influenzae, UniProt P44542); experiment: ITC binding of Neu5Ac to wild-type Hi-SiaP
T7 construct: made in house
Description: as §1

[12] = molecular target: T8, Hi-SiaP T64K mutant (Haemophilus influenzae, UniProt P44542, T87K); experiment: ITC binding of Neu5Ac to Hi-SiaP T64K
T8 construct: made in house
Description: as §1

[13] = molecular target: T9, Hi-SiaP T64R mutant (Haemophilus influenzae, UniProt P44542, T87R); experiment: ITC binding of Neu5Ac to Hi-SiaP T64R; settings: 25°C
T9 construct: made in house
Description: as §1

[14] = molecular target: T7, Hi-SiaP wild type; set-up: method as in Johnston et al. (2008); settings: taken for comparison; ref Johnston et al. (2008); cited from earlier work
[15] = ITC, 20 mM HEPES pH 8.0, 10 mM NaCl, 25°C
[16] = ITC, 20 mM HEPES pH 8.0, 10 mM NaCl, 25°C, read-out: K d

Compound: O=C(O)CC(O)C(=O)O (racemic) [DL-malic acid]
- growth of V. cholerae in the presence of the compound (OD600) [1]: Little growth

Compound: C[C@@H](O)C(=O)O [D-lactic acid]
- growth of V. cholerae in the presence of the compound (OD600) [1]: No growth

Compound: CC(=O)N[C@H]1[C@H]([C@H](O)[C@H](O)CO)OC(C(=O)O)=C[C@@H]1O [Neu5Ac2en, N-acetyl-2,3-dehydro-2-deoxyneuraminic acid]
- interaction measured by ITC ([2]; ITC, 25°C): no measurable interaction
- interaction measured by ITC [3]: no measurable interaction
- interaction measured by ITC [4]: no measurable interaction

Compound: CC(=O)NC1C(O)CC(O)(C(=O)O)OC1C(O)C(O)CO (stereo not drawn) [Neu5Ac]
- H (change in enthalpy, ΔH) [2, 15]: 6560 calmol^1
- T S (entropic component) [2, 15]: 3948.2 calmol^1
- Kd [2, 16]: 19.7 nM
- Kd ([2]; fit box of the isotherm in Figure 4, single-site model, read-out: K (association constant) (converted)): 27 nM
- H (change in enthalpy, ΔH) [5]: 7939 calmol^1
- T S (entropic component) [5]: 40.826 calmol^1
- growth of V. cholerae in the presence of the compound (OD600) [1]: grows
- H (change in enthalpy, ΔH) [6]: 13360 calmol^1
- T S (entropic component) [6]: 4917 calmol^1
- H (change in enthalpy, ΔH) [3]: 7175 calmol^1
- Kd [3]: 306 nM
- T S (entropic component) [3]: 508.9 calmol^1
- affinity for Neu5Ac in words [7]: micromolar affinity
- H (change in enthalpy, ΔH) ([7]; 25°C): 249.5 calmol^1
- T S (entropic component) ([7]; 25°C): 6168.6 calmol^1
- 3F11 binding of V. cholerae grown with Neu5Ac (ELISA) ([8]; 100 µM Neu5Ac, binding did occur after neuraminidase: sialic acid incorporated into surface LOS): did not bind 3F11
- difference in absorbance before and after adding neuraminidase (level of Neu5Ac incorporation) ([8]; 3F11 ELISA, Figure S4, very little difference in LB media control): significant difference
- affinity for Neu5Ac in words [9]: micromolar affinity
- H (change in enthalpy, ΔH) ([9]; 25°C): 6827 calmol^1
- T S (entropic component) ([9]; 25°C): 1016 calmol^1
- K d / binding to Neu5Ac [10]: did not bind to Neu5Ac with measurable affinity; also recorded: No measurable binding
- affinity for Neu5Ac in words [11]: nanomolar affinity
- Kd ([11]; 20 mM HEPES pH 8.0, 10 mM NaCl, 25°C): 16.6 nM
- H (change in enthalpy, ΔH) ([11]; 25°C): 17500 calmol^1
- T S (entropic component) ([11]; 25°C): 6883 calmol^1
- affinity for Neu5Ac in words [12]: micromolar affinity
- H (change in enthalpy, ΔH) ([12]; 25°C): 8743 calmol^1
- T S (entropic component) ([12]; 25°C): 294.72 calmol^1
- K d / binding to Neu5Ac [13]: No measurable binding
- H (change in enthalpy, ΔH) [4]: 9165 calmol^1
- Kd [4]: 45.5 nM
- T S (entropic component) [4]: 849.3 calmol^1
- H (change in enthalpy, ΔH) [14]: 15300 calmol^1
- Kd [14]: 28 nM
- T S (entropic component) [14]: 5000 calmol^1

Compound: O=C(CO)N[C@H]1[C@H]([C@H](O)[C@H](O)CO)OC(O)(C(=O)O)C[C@@H]1O (stereo partly drawn) [Neu5Gc]
- H (change in enthalpy, ΔH) [2, 15]: 7469 calmol^1
- T S (entropic component) [2, 15]: 2777.3 calmol^1
- Kd [2, 16]: 30.7 nM
- growth of V. cholerae in the presence of the compound (OD600) [1]: No growth; also recorded: cannot use Neu5Gc as a carbon source
- H (change in enthalpy, ΔH) [3]: 5200 calmol^1
- Kd [3]: 1090 nM
- T S (entropic component) [3]: 1127.6 calmol^1
- H (change in enthalpy, ΔH) [4]: 12074 calmol^1
- Kd [4]: 45.7 nM
- T S (entropic component) [4]: 2059.4 calmol^1

Compound: O=C(CO)[C@@H](O)[C@H](O)[C@H](O)CO [fructose]
- growth of V. cholerae in the presence of the compound (OD600) [1]: Little growth
